Data: the supplement of paper PMC10307832

What was measured:
Experiment in all cases: relative viability (nuclei count vs DMSO), 5 days (fraction); higher = more cells survive
Kobe2602 + Palbociclib = compound: C1=CC(=CC=C1NC(=S)NNC2=C(C=C(C=C2[N+](=O)[O-])C(F)(F)F)[N+](=O)[O-])F [Kobe2602] + CC(=O)c1c(C)c2cnc(Nc3ccc(N4CCNCC4)cn3)nc2n(C2CCCC2)c1=O [Palbociclib] (partner 0.5 µM)
Summary of the method: (§1)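 Lung cancer cell lines were seeded in 1536-well plates and dosed by pin tool the next day, with either a single drug or a fixed anchor-drug dose combined with five library-drug doses (not always all listed) spaced in √10 steps. Five days later, one step fixed the cells and stained their nuclei (final 0.05% Triton X-100, 1% formaldehyde, 1 ug/ml Hoechst), and nuclei were counted on 4× images. Relative viability is the nuclei count in treated wells divided by the count in vehicle wells, and each value is the median of duplicate plates.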

[1] = compound: COc1cc2nccc(Oc3ccc(NC(=O)C4(C(=O)Nc5ccc(F)cc5)CC4)cc3)c2cc1OC [Cabozantinib] + N=C(N)NC(=N)NCCc1ccccc1 [Phenformin] (partner 250 µM)
Summary of the method: as §1

Cabozantinib + Olaparib = compound: COc1cc2nccc(Oc3ccc(NC(=O)C4(C(=O)Nc5ccc(F)cc5)CC4)cc3)c2cc1OC [Cabozantinib] + O=C(c1cc(Cc2n[nH]c(=O)c3ccccc23)ccc1F)N1CCN(C(=O)C2CC2)CC1 [Olaparib] (partner 8 µM)
Summary of the method: as §1

Zosuquidar + Phenformin = compound: O[C@@H](COc1cccc2ncccc12)CN1CCN([C@@H]2c3ccccc3[C@@H]3[C@H](c4ccccc42)C3(F)F)CC1 [Zosuquidar] + N=C(N)NC(=N)NCCc1ccccc1 [Phenformin] (partner 250 µM)
Summary of the method: as §1

Cell Line | relative viability (Kobe2602 + Palbociclib; first compound 0.2 µM) | relative viability (Kobe2602 + Palbociclib; first compound 0.6325 µM) | relative viability (Kobe2602 + Palbociclib; first compound 2 µM) | relative viability (Kobe2602 + Palbociclib; first compound 6.325 µM) | relative viability (Kobe2602 + Palbociclib; first compound 20 µM) | relative viability ([1]; first compound 0.02 µM) | relative viability ([1]; first compound 0.06325 µM) | relative viability ([1]; first compound 0.2 µM) | relative viability ([1]; first compound 0.6325 µM) | relative viability ([1]; first compound 2 µM) | relative viability (Cabozantinib + Olaparib; first compound 0.02 µM) | relative viability (Cabozantinib + Olaparib; first compound 0.06325 µM) | relative viability (Cabozantinib + Olaparib; first compound 0.2 µM) | relative viability (Cabozantinib + Olaparib; first compound 0.6325 µM) | relative viability (Cabozantinib + Olaparib; first compound 2 µM) | relative viability (Zosuquidar + Phenformin; first compound 0.01 µM) | relative viability (Zosuquidar + Phenformin; first compound 0.03162 µM) | relative viability (Zosuquidar + Phenformin; first compound 0.1 µM) | relative viability (Zosuquidar + Phenformin; first compound 0.3162 µM) | relative viability (Zosuquidar + Phenformin; first compound 1 µM)
SK-MES-1 | 0.323 | 0.338 | 0.335 | 0.28 | 0.201 | 0.701 | 0.688 | 0.705 | 0.667 | 0.631 | 0.767 | 0.845 | 0.689 | 0.684 | 0.694 | 0.661 | 0.622 | 0.644 | 0.607 | 0.637
HCC-366 | 0.377 | 0.344 | 0.35 | 0.384 | 0.395 | 0.675 | 0.612 | 0.653 | 0.623 | 0.581 | 0.597 | 0.464 | 0.395 | 0.4 | 0.335 | 0.61 | 0.674 | 0.623 | 0.718 | 0.575
NCI-H3122 | 0.184 | 0.169 | 0.194 | 0.201 | 0.212 | 0.45 | 0.423 | 0.374 | 0.333 | 0.324 | 0.636 | 0.655 | 0.617 | 0.527 | 0.633 | 0.346 | 0.38 |  | 0.377 | 0.319
COR-L 105 | 0.423 | 0.413 | 0.422 | 0.438 | 0.383 | 0.387 | 0.477 |  | 0.581 | 0.481 | 0.75 | 0.688 | 0.742 | 0.663 | 0.805 | 0.547 | 0.404 | 0.409 | 0.478 | 0.437
201T | 0.378 | 0.375 | 0.351 | 0.394 | 0.322 | 0.383 | 0.451 | 0.472 | 0.438 | 0.439 | 0.909 | 0.893 | 0.832 | 0.842 | 0.832 | 0.449 | 0.444 | 0.404 | 0.468 | 0.472
NCI-H2228 | 0.843 | 0.625 | 0.687 | 0.691 | 0.838 | 0.392 | 0.359 | 0.298 | 0.471 | 0.35 | 0.769 | 0.924 | 0.742 | 0.602 | 0.573 | 0.291 | 0.338 | 0.256 | 0.47 | 0.257
LC-2-ad | 0.466 | 0.514 | 0.533 | 0.506 | 0.484 |  | 0.68 | 0.574 | 0.604 | 0.546 | 0.754 | 0.735 | 0.847 | 0.829 | 0.691 | 0.584 | 0.561 | 0.576 | 0.626 | 0.55
NCI-H2087 | 0.202 | 0.258 | 0.21 | 0.297 | 0.237 | 0.422 | 0.455 | 0.471 | 0.429 | 0.456 | 0.702 | 0.643 | 0.622 | 0.523 | 0.605 | 0.426 |  | 0.363 | 0.545 | 0.492
LK-2 | 0.904 | 0.628 | 0.81 | 0.649 | 0.687 |  | 0.508 |  | 0.396 | 0.607 | 0.57 | 0.791 | 0.815 | 0.697 | 0.667 | 0.413 | 0.412 | 0.549 | 0.67 | 0.475
H3255 | 0.336 | 0.337 | 0.333 | 0.273 | 0.303 | 0.331 | 0.393 |  | 0.346 | 0.37 | 0.583 | 0.613 |  | 0.599 | 0.611 | 0.34 | 0.373 | 0.326 | 0.38 | 0.36
NCI-H2347 | 0.422 | 0.435 | 0.403 | 0.438 | 0.421 | 0.449 | 0.604 | 0.596 |  | 0.318 | 0.641 | 0.549 | 0.525 | 0.493 | 0.446 | 0.411 | 0.394 | 0.253 | 0.396 | 0.426
CAL-12T | 0.515 | 0.6 | 0.411 | 0.408 | 0.407 | 0.666 | 0.597 | 0.554 | 0.591 | 0.529 | 0.728 | 0.859 | 0.73 | 0.716 | 0.743 | 0.634 | 0.629 | 0.554 | 0.576 | 0.582
A-427 | 0.593 | 0.571 | 0.522 | 0.606 | 0.532 | 0.374 | 0.321 | 0.427 | 0.359 | 0.232 | 0.715 | 0.709 | 0.714 | 0.761 | 0.704 | 0.344 | 0.324 | 0.368 | 0.401 | 0.383
HARA | 0.331 | 0.227 | 0.237 | 0.268 | 0.366 | 0.417 | 0.508 | 0.443 | 0.408 | 0.411 | 0.794 | 1.07 |  | 0.978 | 0.635 | 0.408 |  | 0.489 | 0.41 | 0.451
NCI-H2170 | 0.429 | 0.388 | 0.375 | 0.392 | 0.393 | 0.468 | 0.418 | 0.425 | 0.365 | 0.353 | 0.66 | 0.682 | 0.538 | 0.576 | 0.684 | 0.388 | 0.463 | 0.393 | 0.395 | 0.445
NCI-H1623 |  |  |  |  |  | 0.545 | 0.667 | 0.526 | 0.519 | 0.585 |  |  |  |  |  | 0.622 | 0.662 | 0.537 | 0.613 | 0.576
NCI-H2023 | 0.33 | 0.41 | 0.405 | 0.32 | 0.255 | 0.444 | 0.463 | 0.337 | 0.26 | 0.236 | 0.483 | 0.545 | 0.383 | 0.429 | 0.433 | 0.387 | 0.426 | 0.385 | 0.408 | 0.396
